This is an account of results in ChEMBL document CHEMBL5500372, “Novel natural osthole-inspired amphiphiles as membrane targeting antibacterials against methicillin-resistant Staphylococcus aureus (MRSA)” (Eur J Med Chem, 2024).

In brackets after ≈: the same amount, converted by molar mass. Some results are limits rather than exact numbers.

What is called MIC is the least concentration at which growth counts as inhibited. Low values mean a more susceptible organism, high ones a less susceptible organism. What is called HC50 is the concentration that lyses half of the red blood cells.

In data set [1] the test system is Staphylococcus aureus. As to the kind of experiment: Antibacterial activity against methicillin-resistant Staphylococcus aureus clinical isolate 16 measured after 18 hrs by CLSI based broth microdilution method. Type of data set: functional.
Data set [2] has as its system Staphylococcus aureus. The data set can be described thus: Antibacterial activity against Staphylococcus aureus ATCC 29213 measured after 18 hrs by CLSI based broth microdilution method. Format: functional.
The test system of data set [3] is Staphylococcus aureus. As to the kind of experiment: Antibacterial activity against methicillin-resistant Staphylococcus aureus clinical isolate 23 measured after 18 hrs by CLSI based broth microdilution method. Format: functional. (Dilution methods test growth across graded concentrations, often in twofold steps.)
In data set [4] the test system is Staphylococcus aureus. As to the kind of experiment: Antibacterial activity against methicillin-resistant Staphylococcus aureus clinical isolate 21 measured after 18 hrs by CLSI based broth microdilution method. Format: functional.
Another data set relates to Escherichia coli. As to the kind of experiment: Antibacterial activity against Escherichia coli ATCC 25922 measured after 18 hrs by CLSI based broth microdilution method. Format: functional.
Data set [5] has as its system Staphylococcus aureus. As to the kind of experiment: Antibacterial activity against methicillin-resistant Staphylococcus aureus clinical isolate 13 measured after 18 hrs by CLSI based broth microdilution method. Type of data set: functional.
The test system of data set [6] is Staphylococcus aureus. As to the kind of experiment: Antibacterial activity against methicillin-resistant Staphylococcus aureus clinical isolate 20 measured after 18 hrs by CLSI based broth microdilution method. Format: functional.
The nature of data set [7]: Hemolytic activity in sheep erythrocyte assessed as hemolysis incubated for 1 hr by absorbance based analysis. Type of data set: toxicity, cell-based, Ovis aries. To be noted: sheep erythrocytes.
Data set [8] relates to Staphylococcus aureus. As to the kind of experiment: Antibacterial activity against methicillin-resistant Staphylococcus aureus clinical isolate 22 measured after 18 hrs by CLSI based broth microdilution method. Type of data set: functional.
Data set [9] relates to Staphylococcus aureus. As to the kind of experiment: Antibacterial activity against methicillin-resistant Staphylococcus aureus clinical isolate 12 measured after 18 hrs by CLSI based broth microdilution method. Format: functional.
Data set [10] is described as follows: Selectivity index, ratio of HC50 for hemolytic activity in sheep erythrocyte assessed as hemolysis to MIC for antibacterial activity against Staphylococcus aureus ATCC 29213. Type of data set: toxicity. To be noted: sheep erythrocytes, read-out: Selectivity Index.
The subject of data set [11] is Staphylococcus aureus. As to the kind of experiment: Antibacterial activity against methicillin-resistant Staphylococcus aureus clinical isolate 14 measured after 18 hrs by CLSI based broth microdilution method. Type of data set: functional.
In data set [12] the test system is Staphylococcus aureus. As to the kind of experiment: Antibacterial activity against methicillin-resistant Staphylococcus aureus clinical isolate 17 measured after 18 hrs by CLSI based broth microdilution method. Format: functional.
Data set [13] has as its system Staphylococcus aureus. The data set can be described thus: Antibacterial activity against methicillin-resistant Staphylococcus aureus clinical isolate 11 measured after 18 hrs by CLSI based broth microdilution method. Type of data set: functional.

As to `CCCN(CCC)C(=O)C[N+](C)(C)CCCCOc1ccc2ccc(=O)oc2c1CC=C(C)C.[Br-]`, the minimal inhibitory concentration (MIC) with Staphylococcus aureus [1] was 16 µg/mL; against Staphylococcus aureus [2], 16 µg/mL; with Staphylococcus aureus [3] it was 16 µg/mL; against Staphylococcus aureus [4], 16 µg/mL; in the data set on Escherichia coli it was > 128 µg/mL; in the data set with Staphylococcus aureus [5], 32 µg/mL. Also, the MIC against Staphylococcus aureus [6] was determined as 32 µg/mL; in the data set on Staphylococcus aureus [8], 16 µg/mL; against Staphylococcus aureus [9], 32 µg/mL; with Staphylococcus aureus [11], 16 µg/mL; in the data set with Staphylococcus aureus [12], 16 µg/mL; against Staphylococcus aureus [13] it was 16 µg/mL. Further, the HC50 at 1 h in data set [7] is > 1280 µg/mL. For the same molecule, the selectivity ratio in data set [10] was > 80.
With `CC(C)=CCc1c(OCCC[N+](C)(C)CC(=O)N(C(C)C)C(C)C)ccc2ccc(=O)oc12.[Br-]`, the MIC in the data set on Staphylococcus aureus [1] worked out at 16 µg/mL; in the data set with Staphylococcus aureus [2], 16 µg/mL; in the data set with Staphylococcus aureus [3], 16 µg/mL; in the data set on Staphylococcus aureus [4] it was 16 µg/mL; with Escherichia coli it was 128 µg/mL; with Staphylococcus aureus [5] it was 16 µg/mL. The MIC in the data set with Staphylococcus aureus [6] was 32 µg/mL; against Staphylococcus aureus [8], 16 µg/mL; with Staphylococcus aureus [9], 16 µg/mL; against Staphylococcus aureus [11], 16 µg/mL; against Staphylococcus aureus [12], 16 µg/mL; with Staphylococcus aureus [13], 16 µg/mL. Further, the HC50 at 1 h in data set [7] was > 640 µg/mL. Also, the selectivity ratio in data set [10] is > 40.
For the molecule `CCCCCNC(=O)C[N+](C)(C)CCCOc1ccc2ccc(=O)oc2c1CC=C(C)C.[Br-]`, the MIC in the data set on Staphylococcus aureus [1] is 8 µg/mL; in the data set with Staphylococcus aureus [2] it was 16 µg/mL; against Staphylococcus aureus [3], 8 µg/mL; against Staphylococcus aureus [4], 8 µg/mL; with Escherichia coli it was 128 µg/mL; in the data set on Staphylococcus aureus [5], 16 µg/mL. Besides, the MIC is 8 µg/mL with Staphylococcus aureus [6]; 8 µg/mL in the data set with Staphylococcus aureus [8]; 16 µg/mL against Staphylococcus aureus [9]; 16 µg/mL against Staphylococcus aureus [11]; 16 µg/mL with Staphylococcus aureus [12]; 16 µg/mL with Staphylococcus aureus [13]. In addition, the HC50 at 1 h in data set [7] worked out at 1200 µg/mL. Besides, the selectivity ratio in [10] was 75.3.
Consider `CCCNC(=O)C[N+](C)(C)CCCOc1ccc2ccc(=O)oc2c1CC=C(C)C.[Br-]`, for which the MIC in the data set with Staphylococcus aureus [1], against Staphylococcus aureus [2], with Staphylococcus aureus [3], in the data set with Staphylococcus aureus [4], against Escherichia coli and in the data set on Staphylococcus aureus [5] was 128 µg/mL throughout. Besides, the minimum inhibitory concentration (MIC) against Staphylococcus aureus [6] was determined as 128 µg/mL; against Staphylococcus aureus [8], 128 µg/mL; in the data set with Staphylococcus aureus [9], 64 µg/mL; against Staphylococcus aureus [11], 128 µg/mL; against Staphylococcus aureus [12], 128 µg/mL; with Staphylococcus aureus [13], 128 µg/mL. Moreover, the concentration for 50% haemolysis (HC50) at 1 h in [7] was > 1280 µg/mL. Also, the selectivity ratio in [10] is > 10.
Turning to `CCNC(=O)C[N+](C)(C)CCCOc1ccc2ccc(=O)oc2c1CC=C(C)C.[Br-]`, the minimal inhibitory concentration (MIC) against Staphylococcus aureus [1] is 128 µg/mL; in the data set with Staphylococcus aureus [2], 128 µg/mL; against Staphylococcus aureus [3], 128 µg/mL; in the data set on Staphylococcus aureus [4] it was 128 µg/mL; with Escherichia coli, > 128 µg/mL; against Staphylococcus aureus [5], 128 µg/mL. The minimal inhibitory concentration (MIC) in the data set with Staphylococcus aureus [6], against Staphylococcus aureus [8], with Staphylococcus aureus [9], against Staphylococcus aureus [11], against Staphylococcus aureus [12] and in the data set with Staphylococcus aureus [13] was 128 µg/mL throughout. Moreover, in data set [7], the HC50 at 1 h was > 640 µg/mL. In addition, the selectivity ratio in [10] was > 5.
`C[C@@H](O)[C@H]1C(=O)N2C(C(=O)O)=C(S[C@@H]3CN[C@H](C(=O)N(C)C)C3)[C@H](C)[C@H]12` [MEROPENEM] gave a minimum inhibitory concentration (MIC) against Escherichia coli of 0.062 µg/mL (≈ 0.162 µM).
As to `COc1ccc2ccc(=O)oc2c1CC=C(C)C` [OSTHOLE], the minimal inhibitory concentration (MIC) with Staphylococcus aureus [1] was 64 µg/mL (≈ 262 µM); with Staphylococcus aureus [2] it was > 64 µg/mL; against Staphylococcus aureus [3], > 64 µg/mL; in the data set on Staphylococcus aureus [4], > 64 µg/mL; with Escherichia coli, > 64 µg/mL; in the data set with Staphylococcus aureus [5], > 64 µg/mL. Moreover, the minimum inhibitory concentration (MIC) is 64 µg/mL (≈ 262 µM) in the data set on Staphylococcus aureus [6]; 64 µg/mL (≈ 262 µM) in the data set with Staphylococcus aureus [8]; 64 µg/mL (≈ 262 µM) against Staphylococcus aureus [9]; 64 µg/mL (≈ 262 µM) in the data set on Staphylococcus aureus [11]; 64 µg/mL (≈ 262 µM) in the data set on Staphylococcus aureus [12]; > 64 µg/mL in the data set on Staphylococcus aureus [13]. Besides, the HC50 at 1 h in data set [7] is > 80 µg/mL.
